The target of assay [1] is T1, human prostaglandin E2 (subtype EP2) receptor (Homo sapiens, UniProt P43116).
T1 construct: host or cells: cells in a cell culture plate
The assay can be described thus: cAMP antagonism assay (HTRF cAMP detection, in presence of PGE2). It is filed as cell-based. The following applies: cAMP antagonism test. From the text: 1. Detection of the Antagonism of the Human Prostaglandin E2 (Subtype EP2) Receptor Signal
1.1 Principle of Detection
(§1) The binding of PGE2 to the EP2 subtype of the human PGE2 receptor induces activation of membrane-associated adenylate cyclases and leads to the formation of cAMP. In the presence of the phosphodiesterase inhibitor IBMX, cAMP which has accumulated due to this stimulation and been released by cell lysis is employed in a competitive detection method. In this assay, the cAMP in the lysate competes with cAMP-XL665 for binding of an Eu cryptate-labelled anti-cAMP antibody.
(§2) The two signals are measured in a suitable measuring instrument with a time lag, i.e. after the background fluorescence has declined.
1.2.1 Antagonism Assay (Data for Each Well of a 384-Well Plate):
(§3) The substance solutions (0.75 μl) introduced into an assay plate and 30% DMSO are dissolved in 16 μl of a KRSB+IBMX stimulation solution (1×Krebs-Ringer Bicarbonate Buffer; Sigma-Aldrich # K-4002; including 750 μM 3-isobutyl-1-methylxanthine Sigma-Aldrich # I-7018), and then 15 μl thereof are transferred into a media-free cell culture plate which has been washed with KRSB shortly beforehand.
After preincubation at room temperature (RT) for 30 minutes, 5 μl of a 4×PGE2 solution (11 nM) are added, and incubation is carried out in the presence of the agonist at RT for a further 60 min (volume: ˜20 μl) before the reaction is then stopped by adding 5 μl of lysis buffer and incubated at RT for a further 20 min (volume: ˜25 μl). The cell lysate is then transferred into a measuring plate and measured in accordance with the manufacturer's information (cyclic AMP kit Cisbio International # 62AMPPEC).
(In general: In TR-FRET formats the signal depends on donor and acceptor labels being close together.)

The target in assay [2] is T1, human prostaglandin E2 (subtype EP2) receptor. The assay can be described thus: cAMP agonism assay (HTRF cAMP detection). It is filed as cell-based. The following applies: cAMP agonism test; read-out: Agonism [ED50, μm]. As to the method:
as §1, §2
1.2.2 Agonism Assay (Data for Each Well of a 384-Well Plate):
as §3
After incubation at room temperature (RT; volume: ˜15 μl) for 60 minutes, the reaction is then stopped by adding 5 μl of lysis buffer and incubated at RT for a further 20 min (volume: ˜20 μl). The cell lysate is then transferred into a measuring plate and measured in accordance with the manufacturer's information (cyclic AMP kit Cisbio International # 62AMPPEC).

Assay [3] deals with cumulus-oocyte complexes. In words: Cumulus expansion assay in vitro. In kind it is cell-based, mice. The following applies: concentration of 100-200 μm; test substances compete with PGE2. As to the method: 2.2 Cumulus Expansion Assay in Vitro
Folliculogenesis is induced in immature female mice (strain: CD1 (ICR) from Charles River) at an age of 14-18 days by a single dose (intraperitoneal) of 10 I.U. of PMSG (Pregnant Mare Serum Gonadotropin; Sigma G-4877, Lot 68H0909). 47-50 hours after the injection, the ovaries are removed and the cumulus-oocyte complexes are removed. The cumulus complex is not yet expanded at this stage.
The cumulus-oocyte complexes are then incubated with prostaglandin E2 (PGE2) (1 μM), vehicle control (ethanol) or test substances for 20-24 hours. Medium: alpha-MEM medium with 0.1 mM IBMX, pyruvates (0.23 mM) glutamines (2 mM), pen/strep 100 IU/ml pen. and 100 μg/ml strep. and HSA (8 mg/ml). Cumulus expansion is then established through the division into four stages (according to Vanderhyden et al. Dev Biol. 1990 August; 140 (2):307-317).

As usually defined, the IC50 is the concentration that gives 50% inhibition.

SMILES strings stand for the structures.

T1 sequence (P43116 whole entry): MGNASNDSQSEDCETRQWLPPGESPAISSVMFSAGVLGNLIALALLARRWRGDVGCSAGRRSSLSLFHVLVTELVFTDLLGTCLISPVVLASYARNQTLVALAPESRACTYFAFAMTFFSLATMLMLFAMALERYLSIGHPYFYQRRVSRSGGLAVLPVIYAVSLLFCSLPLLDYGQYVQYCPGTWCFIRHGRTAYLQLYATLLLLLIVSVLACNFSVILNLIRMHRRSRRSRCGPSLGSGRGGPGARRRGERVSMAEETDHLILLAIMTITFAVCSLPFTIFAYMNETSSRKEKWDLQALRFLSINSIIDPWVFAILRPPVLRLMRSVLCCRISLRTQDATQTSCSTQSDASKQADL

On to `CC(=O)Nc1cccc(OCCCCOc2ccc3c(c2)C(CC(=O)O)c2ccccc2-3)c1` (racemic) [VI/4, (R/S) {2-[4-(3-Acetylaminophenoxy)butoxy]-9H-fluoren-9-yl}acetic acid], for which the IC50 in assay [1] was above 19 µM. Also, the EC50 in assay [2] came out at 6.3 µM.

`O=C(O)Cn1c2ccccc2c2ccc(OCCCCOc3ccc(-n4cccc4)cc3)cc21` [XIII/22, {2-[4-(4-pyrrol-1-ylphenoxy)butoxy]carbazol-9-yl}acetic acid]: in assay [1], the half-maximal inhibitory concentration (IC50) worked out at 1.2 µM. Besides, in assay [2], the EC50 is above 19 µM.

As for `O=C(O)Cn1c2ccccc2c2ccc(OCCCCCOc3ccccc3)cc21` [XIII/140, [2-(5-phenoxypentyloxy)carbazol-9-yl]acetic acid], in assay [1], the IC50 came to 6.7 µM. Also, the EC50 in assay [2] is above 19 µM.

For `O=C(O)Cn1c2ccccc2c2ccc(OCCCOc3ccccc3)cc21` [XIII/85, [2-(3-phenoxypropoxy)carbazol-9-yl]acetic acid], the IC50 in assay [1] was 6.7 µM. Further, the EC50 in assay [2] was above 19 µM.

Regarding `O=C(O)CCn1c2ccccc2c2ccc(OCCCCOc3ccc4c(c3)CCC(=O)N4)cc21` [XIII/67, 3-{2-[4-(2-oxo-1,2,3,4-tetrahydroquinolin-6-yloxy)butoxy]carbazol-9-yl}propionic acid], the half-maximal inhibitory concentration (IC50) in assay [1] amounted to 3.2 µM. Besides, the EC50 in assay [2] is above 19 µM.

On to `CC(C)Oc1ccc2c(=O)c3cc(C(=O)O)ccc3oc2c1` [AH6809, reference compound], for which the “suppression of cumulus expansion” value in assay [3] is “about 20%”. The concentration for half-maximal inhibition (IC50) in assay [1] was above 19 µM. In assay [2], the EC50 was above 19 µM.

Take `CC(=O)c1cccc(OCCCCOc2ccc3c4ccccc4n(CC(=O)O)c3c2)c1` [XIII/12, {2-[4-(3-acetylphenoxy)butoxy]carbazol-9-yl}acetic acid]: the IC50 in assay [1] was 6.3 µM. Moreover, in assay [2], the EC50 was above 19 µM.

For `O=C(O)CC1c2ccccc2-c2ccc(OCCCCOc3cccc(O)c3)cc21` (racemic) [VI/3, (R/S) {2-[4-(3-Hydroxyphenoxy)butoxy]-9H-fluoren-9-yl}acetic acid], the “suppression of cumulus expansion” value in assay [3] is around 50%. Further, in assay [1], the IC50 amounted to 6.4 µM. Further, the EC50 in assay [2] was above 19 µM.

On to `CCOC(=O)Cn1c2ccccc2c2ccc(OCCCCOc3cccc(C(=O)OC)c3)cc21` [XII/5, Methyl 3-[4-(9-ethoxycarbonylmethyl-9H-carbazol-2-yloxy)butoxy]benzoate], for which, in assay [1], the IC50 was above 19 µM. The EC50 in assay [2] was 6.3 µM.

For the origin of these results see patent US20070197524A1, “Fluorenes and carbazoles as ligands of the EP2 receptor” (priority 2005, published 2007).
